In ChEMBL document CHEMBL3352140, “Targeting the PPM1D phenotype; 2,4-bisarylthiazoles cause highly selective apoptosis in PPM1D amplified cell-lines” (Bioorg Med Chem Lett, 2014):
The source made the active and inactive calls. The rule behind the calls is not given here.

Legend:
[1] = Anticancer activity against human SMOV2 cells after 3 days incubation by SRB proliferation assay; format: functional; details: SMOV2, 72 h
Protein phosphatase 1D = biological target: T1, Protein phosphatase 1D (Homo sapiens, UniProt O15297); test: Inhibition of PPM1D (unknown origin) phosphatase activity using peptide substrate TDDEMT*GY*VAT by malachite green/molybdate based assay
T1 sequence (O15297 whole entry): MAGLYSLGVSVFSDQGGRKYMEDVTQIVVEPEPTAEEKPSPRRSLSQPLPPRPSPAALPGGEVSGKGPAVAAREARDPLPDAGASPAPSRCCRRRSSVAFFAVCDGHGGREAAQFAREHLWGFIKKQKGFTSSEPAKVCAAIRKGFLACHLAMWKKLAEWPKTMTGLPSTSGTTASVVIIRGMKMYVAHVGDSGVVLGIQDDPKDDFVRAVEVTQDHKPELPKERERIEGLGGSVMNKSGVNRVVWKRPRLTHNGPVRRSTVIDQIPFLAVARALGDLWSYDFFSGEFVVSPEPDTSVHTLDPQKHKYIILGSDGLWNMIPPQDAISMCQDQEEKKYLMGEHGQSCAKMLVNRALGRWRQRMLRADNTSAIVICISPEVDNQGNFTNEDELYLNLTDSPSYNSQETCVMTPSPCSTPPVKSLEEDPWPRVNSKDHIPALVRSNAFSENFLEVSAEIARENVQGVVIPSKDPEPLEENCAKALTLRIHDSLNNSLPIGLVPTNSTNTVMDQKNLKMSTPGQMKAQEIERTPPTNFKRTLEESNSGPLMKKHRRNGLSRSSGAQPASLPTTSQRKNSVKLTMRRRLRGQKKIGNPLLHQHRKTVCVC

[2] = Anticancer activity against human TOV21G cells after 3 days incubation by SRB proliferation assay; format: functional; details: 72 h
[3] = Anticancer activity against human TOV21G cells after 5 days incubation by SRB proliferation assay; format: functional; details: 120 h
[4] = Anticancer activity against human SMOV2 cells after 5 days incubation by SRB proliferation assay; format: functional; details: SMOV2, 120 h
SMOV2 = test: Induction of apoptosis in human SMOV2 cells assessed as increase in PARP cleavage at 1.25 to 5 uM after 24 hrs by Western blot analysis; format: functional, cell-based
[5] = biological target: T2, Protein phosphatase 1D (Homo sapiens) (UniProt O15297); details: SMOV2, 1.25 to 5 uM
T2 sequence (whole entry): T1 sequence (O15297 whole entry)
Description: Inhibition of PPM1D in human SMOV2 cells assessed as increase in P-S15-p53 level at 1.25 to 5 uM after 24 hrs by Western blot analysis

[6] = biological target: T2, Protein phosphatase 1D (Homo sapiens); details: TOV21G, 1.25 to 5 uM
Description: Inhibition of PPM1D in non-amplified human TOV21G cells assessed as increase in P-S15-p53 level at 1.25 to 5 uM after 24 hrs by Western blot analysis

TOV21G = test: Induction of apoptosis in […] human TOV21G cells assessed as increase in PARP cleavage at 1.25 to 5 uM after 24 hrs by Western blot analysis; format: functional, cell-based
[7] = Anticancer activity against PPM1D amplified human KPL1 cells after 5 days incubation by SRB proliferation assay; format: functional; details: KPL-1, 120 h
MCF7 = test: Anticancer activity against PPM1D amplified human MCF7 cells after 5 days incubation by SRB proliferation assay; format: functional; details: MCF7, 120 h
[8] = Anticancer activity against […] human TOV21G cells after 5 days incubation by SRB proliferation assay; format: functional; details: 120 h
[9] = Anticancer activity against PPM1D non-amplified human SMOV2 cells after 5 days incubation by SRB proliferation assay; format: functional; details: SMOV2, 120 h
HeLa = test: Anticancer activity against PPM1D non-amplified human HeLa cells after 5 days incubation by SRB proliferation assay; format: functional; details: 120 h
[10] = Anticancer activity against PPM1D non-amplified human CAMA1 cells after 5 days incubation by SRB proliferation assay; format: functional; details: CAMA-1, 120 h

SMILES | GI50 [1] [µM] | IC50 (Protein phosphatase 1D) [µM] | GI50 [2] [µM] | further results
O=c1[nH]c2ccc(-c3csc(-c4ccc(F)cc4CN4CCOCC4)n3)cc2o1 | 0.52 | < 20 | > 50 | –
N#Cc1ccc(-c2nc(-c3ccc4[nH]c(=O)oc4c3)cs2)cc1 | – | < 20 | – | GI50 [3]: > 50 µM; GI50 [4]: 2 µM
Cc1cc(F)ccc1-c1nc(-c2ccc3[nH]c(=O)oc3c2)cs1 | 0.002 | > 100 | > 50 | –
O=c1[nH]c2ccc(-c3csc(-c4ccccc4)n3)cc2o1 | – | < 20 | – | GI50 [3]: > 50 µM; GI50 [4]: 2 µM
Cc1cc(F)ccc1-c1nc(-c2ccc3[nH]c(=O)n(CCN(C)C)c3c2)cs1 | 0.003 | < 20 | > 50 | –
O=c1[nH]c2ccc(-c3csc(-c4ccc(F)c(F)c4)n3)cc2o1 | 0.29 | < 20 | > 50 | –
O=c1[nH]c2ccc(-c3csc(-c4ccc(F)cc4COCCN4CCCC4)n3)cc2o1 | 0.013 | < 20 | > 50 | –
Cc1cc(F)ccc1-c1nc(-c2ccc3c(c2)[nH]c(=O)n3CCN(C)C)cs1 | > 50 | < 20 | > 50 | –
O=c1[nH]c2ccc(-c3csc(-c4ccc(F)c(O)c4)n3)cc2o1 | 1.6 | < 20 | > 50 | –
O=c1[nH]c2ccc(-c3csc(-c4ccc(F)cc4CO)n3)cc2o1 | 0.023 | < 20 | > 50 | –
Cc1cc(-c2nc(-c3ccc4[nH]c(=O)oc4c3)cs2)ccc1F | 0.25 | < 20 | > 50 | –
Cc1cc(F)ccc1-c1nc(-c2ccc3[nH]c(=O)[nH]c3c2)cs1 | 0.001 | < 20 | > 50 | –
CN(C)CCc1cc(F)ccc1-c1nc(-c2ccc3[nH]c(=O)oc3c2)cs1 | 0.04 | < 20 | > 50 | –
COc1cc(F)ccc1-c1nc(-c2ccc3[nH]c(=O)oc3c2)cs1 | 5.7 | < 20 | > 50 | –
COCCOCc1cc(F)ccc1-c1nc(-c2ccc3[nH]c(=O)oc3c2)cs1 | 0.002 | < 20 | > 50 | –
Cc1ccc(-c2nc(-c3ccc4[nH]c(=O)oc4c3)cs2)cc1 | – | < 20 | – | GI50 [3]: > 50 µM; GI50 [4]: 24 µM
O=c1[nH]c2ccc(-c3csc(-c4ccc(F)cc4)n3)cc2o1 | 0.13 | 23 | > 50 | Activity (SMOV2): Active; inhibition [5]: Active; inhibition [6]: inactive; GI50 [3]: > 50 µM; Activity (TOV21G): inactive; GI50 [4]: 0.01 µM
O=c1[nH]c2ccc(-c3csc(-c4ccncc4)n3)cc2o1 | – | < 20 | – | GI50 [3]: > 50 µM; GI50 [4]: 2.8 µM
NCCOCc1cc(F)ccc1-c1nc(-c2ccc3[nH]c(=O)oc3c2)cs1 | 0.003 | < 20 | > 50 | –
CN(C)Cc1cc(F)ccc1-c1nc(-c2ccc3[nH]c(=O)oc3c2)cs1 | 0.01 | < 20 | > 50 | –
COCCOCc1cc(F)ccc1-c1nc(-c2ccc3[nH]c(=O)[nH]c3c2)cs1 | 0.013 | < 20 | > 50 | GI50 [7]: 0.01 µM; GI50 (MCF7): 0.005 µM; GI50 [8]: 5.6 µM; GI50 [9]: 20 µM; GI50 (HeLa): 3.9 µM; GI50 [10]: 15 µM
Cc1cc(F)ccc1-c1nc(-c2ccc3c(c2)CC(=O)N3)cs1 | 0.002 | < 20 | > 50 | –
O=c1[nH]c2ccc(-c3csc(-c4ccc(Cl)cc4)n3)cc2o1 | – | < 20 | – | GI50 [3]: > 50 µM; GI50 [4]: 0.63 µM
O=c1[nH]c2ccc(-c3csc(-c4cccc(F)c4)n3)cc2o1 | – | < 20 | – | GI50 [3]: > 50 µM; GI50 [4]: 0.85 µM
CCc1cc(F)ccc1-c1nc(-c2ccc3[nH]c(=O)oc3c2)cs1 | 0.013 | < 20 | > 50 | –
O=c1[nH]c2ccc(-c3csc(-c4ccc(F)c(C(F)(F)F)c4)n3)cc2o1 | > 50 | < 20 | > 50 | –
